Results published in patent publication US4647562A, “Anti-spasmodic agents having three branch chains” (United Pharmaceuticals, Inc., priority 1985, dated 1987).
Structures can show the parent of a compound that is named as a salt. Where two headings read alike, the source gives them in different places.

Legend:
smooth muscle = conditions: prior knowledge on thiphenamil hydrochloride; cited from earlier work
muscarinic receptors = format: binding, rabbit (New Zealand White); conditions: 1.0 × 10^-5 M compound; 0.1 nM [^3 H]QNB; 37° C., 60 minutes; pH 7.4
[1] = tested on: rabbit urinary bladder strip; assay: Relaxation of bethanechol-contracted rabbit urinary bladder strip preparation; conditions: for inhibition at 100 µM / inhibition at 10 µM / inhibition at 1 µM / inhibition at 0.1 µM / inhibition at 0.01 µM: Oryctolagus cuniculus
Method: The pharmacological actions of three anti-spasmodic compounds were studied in a rabbit urinary bladder strip preparation. In general, longitudinal strips were prepared from the base of freshly isolated rabbit bladders and were then suspended under near-physiological conditions in tissue baths. The strips were attached to force transducers and both contractile and relaxant activity was measured. To measure the relaxant effects on the anti-spasmodic compounds on previously-contracted bladder strips, the strips were initially exposed to the muscarinic receptor agonist bethanechol and allowed to reach a steady level of contractile activity for 20 minutes. At this point cumulative dose-responses to the various compounds were recorded. The rabbit abdomens were opened through a vertical midline incision. […] Tissues were allowed to equilibrate to a tension of 2 gm for sixty minutes during which time buffer was replaced at 20 minute intervals. […] Bethanechol was employed as the representative cholinergic agonist and, following equilibration, was added to the baths for a final concentration of 250 μM. The tissues were allowed 20 minutes to achieve a maintained level of contraction in response to bethanechol and, at this point, cumulative dose-response measurements for three anti-spasmodic compounds were started at concentrations ranging from 10^-8 M to 10^-4 M. Solutions were added in volumes up to 100 μl and were prepared fresh each day by dissolving them in distilled:deionzed water. […]

[2] = 10^-4 moles/liter, bethanechol 250 μM
[3] = 10^-5 moles/liter, bethanechol 250 μM
[4] = 10^-6 moles/liter, bethanechol 250 μM
[5] = 10^-7 moles/liter, bethanechol 250 μM
[6] = 10^-8 moles/liter, bethanechol 250 μM
[7] = pH 7.4, read-out: % of maximum relaxation
[8] = read-out: % background relaxation

| Structure (SMILES) | % inhibition of ^3 H[QNB] binding (muscarinic receptors) | Decrease in force of contraction of rabbit bladder strip [1, 2] | Increase in length of rabbit bladder strip [1, 2] | Decrease in force of contraction of rabbit bladder strip [1, 3] | Increase in length of rabbit bladder strip [1, 3] | Decrease in force of contraction of rabbit bladder strip [1, 4] | Increase in length of rabbit bladder strip [1, 4] | Decrease in force of contraction of rabbit bladder strip [1, 5] | Increase in length of rabbit bladder strip [1, 5] | Decrease in force of contraction of rabbit bladder strip [1, 6] | Increase in length of rabbit bladder strip [1, 6] | also measured |
| --- | --- | --- | --- | --- | --- | --- | --- | --- | --- | --- | --- | --- |
| CCN(CC)CCSC(=O)C(c1ccccc1)c1ccccc1 [Thiphenamil hydrochloride] | – | – | – | – | – | – | – | – | – | – | – | atropinic side effects (smooth muscle): without producing characteristic atropinic side effects on salivary and sweat glands, GI glands, the eye or the cardiovascular system; decrease spasm (smooth muscle): decrease spasm of the gastrointestinal tract, biliary tract, ureter and uterus |
| CCN(CC)CCSC(=O)CC(C)(C)C [t-butyl-acetyl-thio-S-(2-diethylaminoethyl)-ester.HCl] | 76% | 1.08 gm | 3.9 cm | 0.22 gm | 0.6 cm | 0.03 gm | 0.1 cm | 0.00 gm | 0.0 cm | 0.03 gm | 0.1 cm | inhibition at 100 µM ([1]; pH 7.4, 10^-4 moles/liter, bethanechol 250 μM, maximal = pre-bethanechol baseline, read-out: % of maximum relaxation): 98%; inhibition at 10 µM ([1]; pH 7.4, 10^-5 moles/liter, bethanechol 250 μM, maximal = pre-bethanechol baseline, read-out: % of maximum relaxation): 15%; inhibition at 1 µM ([1]; pH 7.4, 10^-6 moles/liter, bethanechol 250 μM, maximal = pre-bethanechol baseline, read-out: % of maximum relaxation): 2.5%; inhibition at 0.1 µM ([1]; pH 7.4, 10^-7 moles/liter, bethanechol 250 μM, maximal = pre-bethanechol baseline, read-out: % of maximum relaxation): 0%; inhibition at 0.01 µM ([1]; pH 7.4, 10^-8 moles/liter, bethanechol 250 μM, maximal = pre-bethanechol baseline, read-out: % of maximum relaxation): 2.5%; inhibition at 100 µM ([1]; 10^-4 moles/liter, bethanechol 250 μM, read-out: % background relaxation): 80%; inhibition at 10 µM ([1]; 10^-5 moles/liter, bethanechol 250 μM, read-out: % background relaxation): 1.3%; inhibition at 1 µM ([1]; 10^-6 moles/liter, bethanechol 250 μM, read-out: % background relaxation): 0%; inhibition at 0.1 µM ([1]; 10^-7 moles/liter, bethanechol 250 μM, read-out: % background relaxation): 0%; inhibition at 0.01 µM ([1]; 10^-8 moles/liter, bethanechol 250 μM, read-out: % background relaxation): 0% |
| CCN(CC)CCSC(=O)C(C)(C)C [trimethylacetyl-thio-S-(2-diethylaminoethyl)-ester.HCl] | 66% | 0.82 gm | 4.1 cm | 0.40 gm | 2.0 cm | 0.38 gm | 1.9 cm | 0.38 gm | 1.9 cm | 0.00 gm | 0.0 cm | inhibition at 0.01 µM [1, 7]: 0%; inhibition at 0.1 µM [1, 7]: 16.5%; inhibition at 1 µM [1, 7]: 16.5%; inhibition at 10 µM [1, 7]: 16.5%; inhibition at 100 µM [1, 7]: 35.7%; inhibition at 0.01 µM [1, 8]: 0%; inhibition at 0.1 µM [1, 8]: 14.1%; inhibition at 1 µM [1, 8]: 14.1%; inhibition at 10 µM [1, 8]: 14.1%; inhibition at 100 µM [1, 8]: 29.7% |
